How the values were obtained:
[1] = system: Influenza A virus; assay: Antiviral activity against Influenza A virus (A/Puerto Rico/8/34(H1N1)) infected in MDCK cells expressing M2 V27T/S31N mutant after overnight incubation by fluorescence-based miniplaque assay; format: functional, organism-based, A/Puerto Rico/8/1934(H1N1)
[2] = Antiviral activity against Influenza A virus (A/California/07/2009(H1N1)) infected in MDCK cells expressing M2 S31N mutant after overnight incubation by fluorescence-based miniplaque assay; format: functional, cell-based
[3] = system: Influenza A virus; assay: Antiviral activity against Influenza A virus A/WS/33(H1N1) infected in MDCK cells expressing M2 S31N mutant after overnight incubation by fluorescence-based miniplaque assay; format: functional, organism-based
[4] = system: Matrix protein 2 (Influenza A virus (A/Udorn/307/1972(H3N2))), P0DOF8 [S31N]; format: cell-based; settings: Influenza A virus (A/California/08/2009(H1N1)); HEK293; 100 uM

Molecule `CCCCCCC1(N)C2CC3CC(C2)CC1C3` (stereo not given) has an EC50 [1] of 0.07 µM, an EC50 [2] of 0.13 µM and an EC50 [3] of 13 µM.
In the case of `CC(N)C12CC3CC(CC(C3)C1)C2` (stereo not given) [RIMANTADINE], the EC50 [1] is reported as 3.3 µM, the EC50 [2] is reported as 110 µM and the EC50 [3] is reported as 310 µM.
With `CC(C)CC1(N)C2CC3CC(C2)CC1C3` (stereo not given) the EC50 [1] was 0.3 µM, the EC50 [2] was 8 µM and the EC50 [3] was 210 µM.
Molecule `NC1C2CC3CC(C2)CC1C3` (stereo not given) has an EC50 [1] of 3.8 µM, an EC50 [2] of 150 µM and an EC50 [3] of 110 µM. The Activity [4] was 16%.
Molecule `NC1(c2ccccc2)C2CC3CC(C2)CC1C3` (stereo not given) has an EC50 [1] of less than 0.3 µM, an EC50 [2] of 21 µM and an EC50 [3] of 86 µM.
For `CCCC1(N)C2CC3CC(C2)CC1C3` (stereo not given), the EC50 [1] was 0.5 µM, the EC50 [2] was 4.7 µM and the EC50 [3] was 390 µM. It also gave an Activity [4] of 9.4%.
Work on `CCCCC1(N)C2CC3CC(C2)CC1C3` (stereo not given) yielded an EC50 [1] of 0.3 µM, an EC50 [2] of 8.5 µM and an EC50 [3] of 355 µM.
Molecule `NC1(Cc2ccccc2)C2CC3CC(C2)CC1C3` (stereo not given) has an EC50 [1] of 1.2 µM, an EC50 [2] of 8.6 µM and an EC50 [3] of 280 µM.
`CC1(N)C2CC3CC(C2)CC1C3` (stereo not given) gave an EC50 [1] of 0.4 µM, an EC50 [2] of 54 µM and an EC50 [3] of 19 µM.
Molecule `CCC1(N)C2CC3CC(C2)CC1C3` (stereo not given) has an EC50 [1] of 1.8 µM, an EC50 [2] of 25 µM and an EC50 [3] of 23 µM.
`NC12CC3CC(CC(C3)C1)C2` [AMANTADINE] showed an EC50 [1] of 24 µM, an EC50 [2] of 240 µM and an EC50 [3] of 24 µM.
